Source: patent US9079913B2, “Spiro-oxindole MDM2 antagonists” (The Regents of the University of Michigan, priority 2009, dated 2015)
Like-named read-outs stand apart in the source and are kept apart here.

Key:
[1] = system: Isogenic HCT-116 colon cancer cell lines; experiment: cells; type: cell-based;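 note: cells grown in 96-well plates in McCoy's 5A medium with 10% FBS, exposed to compound for 4 days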
Method: Cells were seeded in 96-well flat bottom cell culture plates at a density of 2−3×10^3 cells/well with compounds and incubated for 4 days.

[2] = system: cancer cell lines with wild-type p53 / mutated or deleted p53 (ATCC); experiment: Cell growth assay (WST-8), other cancer cell lines; type: cell-based
[3] = molecular target: recombinant human His-tagged MDM2 protein (residues 1-118) (Homo sapiens (Human), UniProt Q00987); experiment: Fluorescence-polarization MDM2 binding assay; settings: Table 19B; read-out: Binding affinities to MDM2 protein as determined by FP based assay IC50;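 note: fluorescence polarization read after three hours of incubation in potassium phosphate buffer containing bovine gamma globulin and Triton X-100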
Sequence of recombinant human His-tagged MDM2 protein (residues 1-118) (Q00987 1-118): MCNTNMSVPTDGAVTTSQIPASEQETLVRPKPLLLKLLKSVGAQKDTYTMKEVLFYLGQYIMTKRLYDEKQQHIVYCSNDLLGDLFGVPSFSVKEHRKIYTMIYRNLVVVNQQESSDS

[4] = Homo sapiens, HCT-116, read-out: Inhibition of cell growth IC50, HCT116 p53 KO, Table 19B, HCT116 p53 KO
[5] = Homo sapiens, HCT-116, read-out: Inhibition of cell growth IC50, HCT116 p53 WT, Table 19B, HCT116 p53 WT
[6] = Homo sapiens, LNCaP, Table 19B, LNCaP cells, read-out: Inhibition of cell growth IC50, LNCaP
[7] = Homo sapiens, PC-3, Table 19B, PC3 cells, read-out: Inhibition of cell growth IC50, PC3
[8] = read-out: Inhibition of cell growth IC50, HCT116 p53 KO, Table 19B, HCT116 p53 KO
[9] = read-out: Inhibition of cell growth IC50, HCT116 p53 WT, Table 19B, HCT116 p53 WT
[10] = Table 19B, LNCaP cells, read-out: Inhibition of cell growth IC50, LNCaP
[11] = Table 19B, PC3 cells, read-out: Inhibition of cell growth IC50, PC3

SMILES: CC(C)CC[C@H]1N[C@@H](C(=O)NCC[C@H](O)CO)[C@H](c2cccc(Cl)c2)[C@@]12C(=O)Nc1cc(Cl)c(F)cc12 [MI-705]
- IC50 [1, 4]: 32 ± 33.3 µM
- IC50 [1, 5]: 4.4 ± 4 µM
- IC50 [2, 6]: 1.4 ± 0.8 µM
- IC50 [2, 7]: 43.9 ± 31.7 µM
- IC50 [3]: < 10 µM

SMILES: O=C(NCC[C@H](O)CO)[C@@H]1N[C@H](CC2CC2)[C@]2(C(=O)Nc3cc(Cl)c(F)cc32)[C@H]1c1cccc(Cl)c1 [MI-706]
- IC50 [1, 4]: 1.3 ± 0.2 µM
- IC50 [1, 5]: 0.6 ± 0.1 µM
- IC50 [2, 6]: 0.3 µM
- IC50 [2, 7]: 4.6 ± 2.9 µM
- IC50 [3]: < 10 µM

SMILES: O=C(NCC[C@H](O)CO)[C@@H]1N[C@H](CCc2ccsc2)[C@]2(C(=O)Nc3cc(Cl)c(F)cc32)[C@H]1c1cccc(Cl)c1 [MI-707]
- IC50 [1, 4]: 1.3 ± 0.2 µM
- IC50 [1, 5]: 0.6 ± 0.1 µM
- IC50 [2, 6]: 0.3 µM
- IC50 [2, 7]: 4.6 ± 2.9 µM
- IC50 [3]: < 5 µM

SMILES: CN1[C@@H](C(=O)NCC[C@H](O)CO)[C@H](c2cccc(Cl)c2)[C@@]2(C(=O)Nc3cc(Cl)c(F)cc32)[C@H]1CC(C)(C)C [MI-708A]
- IC50 [1, 8]: 95.6 ± 18.2 µM
- IC50 [1, 9]: 3.8 ± 1 µM
- IC50 [2, 10]: 3.5 µM
- IC50 [2, 11]: 83.8 ± 11.3 µM
- IC50 [3]: > 3 µM

SMILES: CN1[C@@H](C(=O)NCC[C@H](O)CO)[C@H](c2cccc(Cl)c2)[C@@]2(C(=O)Nc3cc(Cl)c(F)cc32)[C@H]1CC(C)(C)C [MI-708B]
- IC50 [1, 8]: 96.9 ± 17.8 µM
- IC50 [1, 9]: 6.6 ± 2.2 µM
- IC50 [2, 10]: 6 ± 0.3 µM
- IC50 [2, 11]: 84.5 ± 18.3 µM
- IC50 [3]: > 3 µM

SMILES: CN1[C@@H](C(=O)NCC[C@H](O)CO)[C@H](c2cccc(Cl)c2)[C@@]2(C(=O)Nc3cc(Cl)c(F)cc32)[C@H]1CCCc1ccccc1 [MI-709]
- IC50 [1, 4]: 9.4 ± 1.2 µM
- IC50 [1, 5]: 9.9 ± 1.7 µM
- IC50 [2, 6]: 5.6 ± 1.1 µM
- IC50 [2, 7]: 7.2 ± 1.4 µM
- IC50 [3]: > 10 µM

SMILES: O=C(NCC[C@H](O)CO)[C@@H]1N[C@H](CCCc2cccs2)[C@]2(C(=O)Nc3cc(Cl)c(F)cc32)[C@H]1c1cccc(Cl)c1 [MI-710]
- IC50 [1, 4]: 12.4 ± 1.2 µM
- IC50 [1, 5]: 1.3 ± 0.3 µM
- IC50 [2, 6]: 1.2 ± 0.2 µM
- IC50 [2, 7]: 12.4 ± 1.9 µM
- IC50 [3]: > 1 µM

SMILES: CN1[C@@H](C(=O)NCC[C@H](O)CO)[C@H](c2cccc(Cl)c2)[C@@]2(C(=O)Nc3cc(Cl)c(F)cc32)[C@H]1CCCc1cccs1 [MI-711]
- IC50 [1, 4]: 6.3 ± 2.9 µM
- IC50 [1, 5]: 8.6 ± 1.2 µM
- IC50 [2, 6]: 4.8 ± 1.1 µM
- IC50 [2, 7]: 9.3 ± 2.5 µM
- IC50 [3]: > 5 µM

SMILES: O=C(NCC[C@H](O)CO)[C@@H]1N[C@H](CCC2CCCC2)[C@]2(C(=O)Nc3cc(Cl)c(F)cc32)[C@H]1c1cccc(Cl)c1 [MI-712]
- IC50 [1, 4]: 9.1 ± 1 µM
- IC50 [1, 5]: 1.8 ± 0.4 µM
- IC50 [2, 6]: 1 µM
- IC50 [2, 7]: 7.9 ± 0.2 µM
- IC50 [3]: < 3 µM

SMILES: CN1[C@@H](C(=O)NCC[C@H](O)CO)[C@H](c2cccc(Cl)c2)[C@@]2(C(=O)Nc3cc(Cl)c(F)cc32)[C@H]1CCC1CCCC1 [MI-713]
- IC50 [1, 4]: 4.3 ± 0.7 µM
- IC50 [1, 5]: 4.9 ± 1.4 µM
- IC50 [2, 6]: 2.7 ± 0.7 µM
- IC50 [2, 7]: 6.1 ± 2.1 µM
- IC50 [3]: < 10 µM

SMILES: CN1[C@@H](C(=O)NCC[C@H](O)CO)[C@H](c2cccc(Cl)c2)[C@@]2(C(=O)Nc3cc(Cl)c(F)cc32)[C@H]1CCc1cccs1 [MI-714]
- IC50 [1, 4]: 7.5 ± 0.3 µM
- IC50 [1, 5]: 8.6 ± 0.1 µM
- IC50 [2, 6]: 4.3 µM
- IC50 [2, 7]: 7.7 ± 1.6 µM
- IC50 [3]: > 10 µM

SMILES: O=C(NCC[C@H](O)CO)[C@@H]1N[C@H](CCc2ccco2)[C@]2(C(=O)Nc3cc(Cl)c(F)cc32)[C@H]1c1cccc(Cl)c1 [MI-715B]
- IC50 [1, 4]: > 10 µM
- IC50 [1, 5]: 2.7 ± 1 µM
- IC50 [2, 6]: 3 ± 0.7 µM
- IC50 [2, 7]: > 10 µM
- IC50 [3]: < 5 µM

SMILES: O=C(NCC[C@H](O)CO)[C@@H]1N[C@H](CCc2ccco2)[C@]2(C(=O)Nc3cc(Cl)c(F)cc32)[C@H]1c1cccc(Cl)c1 [MI-715C]
- IC50 [1, 8]: > 10 µM
- IC50 [1, 9]: 2.9 ± 0.6 µM
- IC50 [2, 10]: 2.2 ± 1.2 µM
- IC50 [2, 11]: > 10 µM
- IC50 [3]: < 5 µM

SMILES: O=C(NCC[C@H](O)CO)[C@@H]1N[C@H](CC2CCCCC2)[C@]2(C(=O)Nc3cc(Cl)c(F)cc32)[C@H]1c1cccc(Cl)c1 [MI-716A]
- IC50 [1, 4]: > 10 µM
- IC50 [1, 5]: 1 ± 0.5 µM
- IC50 [2, 6]: 1.1 ± 0.5 µM
- IC50 [2, 7]: 11.5 ± 0.5 µM
- IC50 [3]: < 3 µM

SMILES: O=C(NCC[C@H](O)CO)[C@@H]1N[C@H](CC2CCCCC2)[C@]2(C(=O)Nc3cc(Cl)c(F)cc32)[C@H]1c1cccc(Cl)c1 [MI-716B]
- IC50 [1, 8]: 11.5 ± 0.7 µM
- IC50 [1, 9]: 0.6 ± 0.2 µM
- IC50 [2, 10]: 0.86 ± 0.3 µM
- IC50 [2, 11]: 9 ± 2.8 µM
- IC50 [3]: < 1 µM

SMILES: O=C(NCC[C@H](O)CO)[C@@H]1N[C@H](CC2CCCCC2)[C@]2(C(=O)Nc3cc(Cl)c(F)cc32)[C@H]1c1cccc(Cl)c1 [MI-716C]
- IC50 [1, 8]: 12 ± 3.4 µM
- IC50 [1, 9]: 0.7 ± 0.2 µM
- IC50 [2, 10]: 0.8 ± 0.1 µM
- IC50 [2, 11]: 8 ± 2 µM
- IC50 [3]: < 1 µM

SMILES: CN1[C@@H](C(=O)NCC[C@H](O)CO)[C@H](c2cccc(Cl)c2)[C@@]2(C(=O)Nc3cc(Cl)c(F)cc32)[C@H]1CC(C)(C)C [MI-717]
- IC50 [1, 8]: 47.8 ± 1.4 µM
- IC50 [1, 9]: 2.2 ± 0.1 µM
- IC50 [2, 10]: 2.7 ± 0.6 µM
- IC50 [2, 11]: 31.5 ± 1.4 µM
- IC50 [3]: > 3 µM

SMILES: CN1[C@@H](C(=O)NCC[C@H](O)CO)[C@H](c2cccc(Cl)c2F)[C@@]2(C(=O)Nc3cc(F)c(F)cc32)[C@H]1CC(C)(C)C [MI-718]
- IC50 [1, 4]: 47.2 ± 5 µM
- IC50 [1, 5]: 3 ± 1.1 µM
- IC50 [2, 6]: 3.7 ± 0.3 µM
- IC50 [2, 7]: 34.2 ± 0.4 µM
- IC50 [3]: > 3 µM

SMILES: CC(C)(C)C[C@@H]1[C@]2(C(=O)Nc3cc(Cl)c(F)cc32)[C@@H](c2cccc(Cl)c2)[C@H](C(=O)NCC[C@H](O)CO)[N+]1(C)C [MI-719]
- IC50 [1, 4]: > 100 µM
- IC50 [1, 5]: 58.6 ± 14.9 µM
- IC50 [2, 6]: 51.2 µM
- IC50 [2, 7]: > 100 µM
- IC50 [3]: > 10 µM

SMILES: CCC(C)(C)C[C@H]1N[C@@H](C(=O)NCC[C@H](O)CO)[C@H](c2cccc(Cl)c2)[C@@]12C(=O)Nc1cc(Cl)c(F)cc12 [MI-720]
- IC50 [1, 4]: 19.5 ± 5.6 µM
- IC50 [1, 5]: 0.69 µM
- IC50 [2, 6]: 0.76 ± 0.1 µM
- IC50 [2, 7]: 15.2 ± 3.2 µM
- IC50 [3]: < 1 µM

SMILES: CC(C)(C)C[C@H]1N[C@@H](C(=O)NCCN2CCOCC2)[C@H](c2cccc(Cl)c2F)[C@@]12C(=O)Nc1cc(F)c(F)cc12 [MI-721]
- IC50 [1, 4]: 18.4 ± 5.4 µM
- IC50 [1, 5]: 1.5 ± 0.3 µM
- IC50 [2, 6]: 1.4 µM
- IC50 [2, 7]: 15.2 ± 1.4 µM
- IC50 [3]: < 3 µM

SMILES: CCC(C)(C)C[C@H]1N(C)[C@@H](C(=O)NCC[C@H](O)CO)[C@H](c2cccc(Cl)c2F)[C@@]12C(=O)Nc1cc(F)c(F)cc12 [MI-723]
- IC50 [1, 4]: 51.3 µM
- IC50 [1, 5]: 2.42 µM
- IC50 [2, 6]: 2.3 µM
- IC50 [2, 7]: 24.7 µM
- IC50 [3]: < 5 µM

SMILES: CCCCC(C)(C)C[C@H]1N[C@@H](C(=O)NCC[C@H](O)CO)[C@H](c2cccc(Cl)c2)[C@@]12C(=O)Nc1cc(Cl)c(F)cc12 [MI-724]
- IC50 [1, 4]: 5.3 ± 0.3 µM
- IC50 [1, 5]: 1.1 ± 0.5 µM
- IC50 [2, 6]: 1.2 ± 0.4 µM
- IC50 [2, 7]: 3.9 ± 0.2 µM
- IC50 [3]: < 1 µM

SMILES: CC(C)CC(C)(C)C[C@H]1N[C@@H](C(=O)NCC[C@H](O)CO)[C@H](c2cccc(Cl)c2)[C@@]12C(=O)Nc1cc(Cl)c(F)cc12 [MI-725]
- IC50 [1, 4]: 5.8 ± 2.9 µM
- IC50 [1, 5]: 0.7 µM
- IC50 [2, 6]: 0.8 ± 0.1 µM
- IC50 [2, 7]: 4.7 ± 1 µM
- IC50 [3]: < 1 µM

SMILES: CC(C)CC(C)(C)C[C@H]1N(C)[C@@H](C(=O)NCC[C@H](O)CO)[C@H](c2cccc(Cl)c2)[C@@]12C(=O)Nc1cc(Cl)c(F)cc12 [MI-726]
- IC50 [1, 4]: 8 ± 0.8 µM
- IC50 [1, 5]: 2.3 ± 0.8 µM
- IC50 [2, 6]: 2.3 ± 0.3 µM
- IC50 [2, 7]: 5.1 ± 1.4 µM
- IC50 [3]: < 5 µM

SMILES: CC(C)(C)C[C@H]1N[C@@H](C(=O)NCC[C@H](O)CO)[C@H](c2cccc(Cl)c2)[C@@]12C(=O)Nc1c(Cl)cccc12 [MI-727]
- IC50 [1, 4]: 20.9 ± 1.1 µM
- IC50 [1, 5]: 24.1 ± 0.7 µM
- IC50 [2, 6]: 12.2 ± 0.5 µM
- IC50 [2, 7]: 21.4 ± 4.8 µM
- IC50 [3]: > 10 µM

SMILES: CCCCC(C)(C)C[C@H]1N(C)[C@@H](C(=O)NCC[C@H](O)CO)[C@H](c2cccc(Cl)c2)[C@@]12C(=O)Nc1cc(Cl)c(F)cc12 [MI-728]
- IC50 [1, 4]: 16.9 ± 5.6 µM
- IC50 [1, 5]: 4 ± 0.8 µM
- IC50 [2, 6]: 2.1 ± 0.1 µM
- IC50 [2, 7]: 7.1 ± 2 µM
- IC50 [3]: < 5 µM
